Data from patent US11072588B2, “Barbituric acid derivatives comprising cationic and lipophilic groups” (UNIVERSITETET I TROMSØ—NORGES ARKTISKE UNIVERSITET, priority 2017, dated 2021).
Where two headings read alike, the source gives them in different places.

Assays:
S. aureus strain 85/2082 = experiment: MIC, multi-resistant clinical isolate; type: cell-based, Staphylococcus aureus; settings: for selectivity index (EC50/MIC): RBC EC50 / MIC, S. aureus strain 85/2082; for MIC: Staphylococcus aureus, 85/2082, read-out: Antimicrobial activity (MIC)
S. aureus N315 = experiment: MIC, multi-resistant clinical isolate; type: cell-based, Staphylococcus aureus; settings: for selectivity index (EC50/MIC): RBC EC50 / MIC, S. aureus N315; for MIC: Staphylococcus aureus, N315, read-out: Antimicrobial activity (MIC)
S. aureus strain WIS = experiment: MIC, multi-resistant clinical isolate; type: cell-based, Staphylococcus aureus; settings: for selectivity index (EC50/MIC): RBC EC50 / MIC, S. aureus strain WIS; for MIC: Staphylococcus aureus, read-out: Antimicrobial activity (MIC)
S. aureus IHT 99040 = experiment: MIC, multi-resistant clinical isolate; type: cell-based, Staphylococcus aureus; settings: for selectivity index (EC50/MIC): RBC EC50 / MIC; for MIC: Staphylococcus aureus, IHT99040, read-out: Antimicrobial activity (MIC)
S. aureus NCTC 10442 = experiment: MIC, multi-resistant clinical isolate; type: cell-based, Staphylococcus aureus; settings: for selectivity index (EC50/MIC): RBC EC50 / MIC, S. aureus NCTC 10442; for MIC: Staphylococcus aureus, NCTC10442, read-out: Antimicrobial activity (MIC)
[1] = test system: human metastatic melanoma (A2058, ATCC CRL-11147) cells; experiment: Anti-cancer activity against A2058 cells; type: cell-based; settings: A2058, read-out: Anti-cancer IC50
Summary of the method: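 A2058 melanoma cells seeded at 2,000/well overnight, then exposed to a concentration range in serum-free MEM (gentamycin, NEAA, pyruvate, glutamine) for 24 h (cytotoxicity stated as after 72 h exposure). MTS-type tetrazolium reagent added for 1 h; absorbance at 485 nm; % survival versus medium and Triton X-100 controls.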

E. coli 50857972 = experiment: MIC, multi-resistant clinical isolate; type: cell-based, Escherichia coli; settings: for MIC: Escherichia coli, read-out: Antimicrobial activity (MIC); for selectivity index (EC50/MIC): RBC EC50 / MIC
E. coli 50579417 = experiment: MIC, multi-resistant clinical isolate; type: cell-based, Escherichia coli; settings: for MIC: Escherichia coli, read-out: Antimicrobial activity (MIC); for selectivity index (EC50/MIC): RBC EC50 / MIC
E. coli 50639799 = experiment: MIC, multi-resistant clinical isolate; type: cell-based, Escherichia coli; settings: for MIC: Escherichia coli, read-out: Antimicrobial activity (MIC); for selectivity index (EC50/MIC): RBC EC50 / MIC
E. coli 50676002 = experiment: MIC, multi-resistant clinical isolate; type: cell-based, Escherichia coli; settings: E. coli 50676002; for MIC: Escherichia coli, read-out: Antimicrobial activity (MIC); for selectivity index (EC50/MIC): RBC EC50 / MIC
E. coli 50739822 = experiment: MIC, multi-resistant clinical isolate; type: cell-based, Escherichia coli; settings: for MIC: Escherichia coli, read-out: Antimicrobial activity (MIC); for selectivity index (EC50/MIC): RBC EC50 / MIC
E. faecium K36-18 = experiment: MIC, multi-resistant clinical isolate; type: cell-based, Enterococcus faecium; settings: for MIC: Enterococcus faecium, K3618, read-out: Antimicrobial activity (MIC); for selectivity index (EC50/MIC): RBC EC50 / MIC, E. faecium K36-18
E. faecium 50758899 = experiment: MIC, multi-resistant clinical isolate; type: cell-based, Enterococcus faecium; settings: for MIC: Enterococcus faecium, read-out: Antimicrobial activity (MIC); for selectivity index (EC50/MIC): RBC EC50 / MIC
E. faecium TUH50-22 = experiment: MIC, multi-resistant clinical isolate; type: cell-based, Enterococcus faecium; settings: for MIC: Enterococcus faecium, TUH5022, read-out: Antimicrobial activity (MIC); for selectivity index (EC50/MIC): RBC EC50 / MIC
E. faecium 50673722 = experiment: MIC, multi-resistant clinical isolate; type: cell-based, Enterococcus faecium; settings: for MIC: Enterococcus faecium, read-out: Antimicrobial activity (MIC); for selectivity index (EC50/MIC): RBC EC50 / MIC
E. faecium 50901530 = experiment: MIC, multi-resistant clinical isolate; type: cell-based, Enterococcus faecium; settings: for MIC: Enterococcus faecium, read-out: Antimicrobial activity (MIC); for selectivity index (EC50/MIC): RBC EC50 / MIC
P. aeruginosa K44-24 = experiment: MIC, multi-resistant clinical isolate; type: cell-based, Pseudomonas aeruginosa; settings: for MIC: Pseudomonas aeruginosa, K4424, read-out: Antimicrobial activity (MIC); for selectivity index (EC50/MIC): RBC EC50 / MIC
P. aeruginosa 50692520 = experiment: MIC, multi-resistant clinical isolate; type: cell-based, Pseudomonas aeruginosa; settings: for MIC: Pseudomonas aeruginosa, read-out: Antimicrobial activity (MIC); for selectivity index (EC50/MIC): RBC EC50 / MIC
P. aeruginosa K34-7 = experiment: MIC, multi-resistant clinical isolate; type: cell-based, Pseudomonas aeruginosa; settings: for MIC: Pseudomonas aeruginosa, K347, read-out: Antimicrobial activity (MIC); for selectivity index (EC50/MIC): RBC EC50 / MIC, P. aeruginosa K34-7
[2] = test system: panel of 30 multi-resistant clinical isolates of Gram-positive and Gram-negative bacteria; experiment: MIC screening, ranges over the panel of clinical isolates; type: cell-based
Description: Working solutions of the test derivatives were prepared with up to 100% DMSO and stored at −20° C. If necessary, the solutions were heated to 40-80° C. before testing to facilitate complete dissolution. Double-distilled water was used in all dilutions prepared. […] A microdilution susceptibility test was used for MIC determination according to Clinical and Laboratory Standards Institute, “Methods for Dilution Antimicrobial Sisceptibility Tests for Bacteria That Graw Aerobically”, Approved Standard M07-A9, edition 2012, with modifications as described by Igumnova et al (Bioorg Med Chem, 2016, 24 (22), 5884-5894).
Briefly, the bacterial inoculum was adjusted to approximately 2.5-3×10^4 cells/mL in Mueller-Hinton broth (MHB, Difco Laboratories, USA), and incubated in a ratio of 1:1 with test derivatives in polystyrene 96-well flat-bottom microplates (NUNC, Roskilde, Denmark). Positive growth control (without test derivatives) and negative control (without bacteria) were included. The reference antibiotic was oxytetracycline hydrochloride (Sigma Aldrich, Saint Louis, Mo., USA). The microplates were incubated in an EnVision microplate reader (Perkin-Elmer, Turku, Finland) placed in an incubator set to 35° C. for 48 h. The MIC value was defined as the lowest concentration of derivative resulting in no bacterial growth as determined by OD600 measurement. All derivatives were tested in three parallels.
The MIC was determined as explained above with some exceptions; working solutions of test derivatives were prepared from concentrated DMSO stocks stored at room temperature, the density of the bacterial inoculum was increased 40× to 1-1.2×10^6 cells/mL, enterococci were incubated in Brain Heart Infusion broth (BHIB, Difco Laboratories, USA), the microplates were incubated for 24 h, and the derivatives were tested in four parallels.

N=C(N)NCCCCN1C(=O)N(CCCCNC(=N)N)C(=O)C(Cc2ccc(F)c3ccccc23)(Cc2ccc(F)c3ccccc23)C1=O [8(v), 1,1′-(4,4′-(5,5-bis((4-fluoronaphthalen-1-yl)methyl)-2,4,6-trioxodihydropyrimidine-1,3(2H,4H)-diyl)bis(butane-4,1-diyl))diguanidine]
(11): selectivity index (EC50/MIC) (E. coli 50579417) | selectivity index (EC50/MIC) (E. coli 50739822)
(6): selectivity index (EC50/MIC) (P. aeruginosa K44-24) | selectivity index (EC50/MIC) (P. aeruginosa 50692520) | selectivity index (EC50/MIC) (P. aeruginosa K34-7)
4 µg/mL: MIC (E. coli 50857972) | MIC (E. coli 50639799) | MIC (E. coli 50676002) | MIC (E. faecium K36-18) | MIC (E. faecium 50758899) | MIC (E. faecium TUH50-22) | MIC (E. faecium 50673722) | MIC (E. faecium 50901530)
2 to 16 µg/mL: MIC ([2]; read-out: MIC values against all the 30 multi-resistant clinical isolates)
(22): selectivity index (EC50/MIC) (E. coli 50857972) | selectivity index (EC50/MIC) (E. coli 50639799) | selectivity index (EC50/MIC) (E. coli 50676002) | selectivity index (EC50/MIC) (E. faecium K36-18) | selectivity index (EC50/MIC) (E. faecium 50758899) | selectivity index (EC50/MIC) (E. faecium TUH50-22) | selectivity index (EC50/MIC) (E. faecium 50673722) | selectivity index (EC50/MIC) (E. faecium 50901530)
8 µg/mL: IC50 [1] | MIC (E. coli 50579417) | MIC (E. coli 50739822)
2 µg/mL: MIC (S. aureus strain 85/2082) | MIC (S. aureus N315) | MIC (S. aureus strain WIS) | MIC (S. aureus IHT 99040) | MIC (S. aureus NCTC 10442)
(44): selectivity index (EC50/MIC) (S. aureus strain 85/2082) | selectivity index (EC50/MIC) (S. aureus N315) | selectivity index (EC50/MIC) (S. aureus strain WIS) | selectivity index (EC50/MIC) (S. aureus IHT 99040) | selectivity index (EC50/MIC) (S. aureus NCTC 10442)
16 µg/mL: MIC (P. aeruginosa K44-24) | MIC (P. aeruginosa 50692520) | MIC (P. aeruginosa K34-7)

CC(C)(C)c1ccc(CC2(Cc3ccc(C(C)(C)C)cc3)C(=O)N(CCCCNC(=N)N)C(=O)N(CCCCNC(=N)N)C2=O)cc1 [Compound 8(i), 1,1′-(4,4′-(5,5-bis(4-tert-butylbenzyl)-2,4,6-trioxodihydropyrimidine-1,3(2H,4H)-diyl)bis(butane-4,1-diyl))diguanidine]
2 to 4 µg/mL: MIC ([2]; read-out: MIC values against S. aurues, E. faecium and E. coli)
2 µg/mL: MIC (S. aureus strain 85/2082) | MIC (S. aureus N315) | MIC (S. aureus strain WIS) | MIC (S. aureus IHT 99040) | MIC (S. aureus NCTC 10442) | IC50 [1] | MIC (E. faecium K36-18) | MIC (E. faecium 50758899) | MIC (E. faecium TUH50-22) | MIC (E. faecium 50673722)
(39): selectivity index (EC50/MIC) (S. aureus strain 85/2082) | selectivity index (EC50/MIC) (S. aureus N315) | selectivity index (EC50/MIC) (S. aureus strain WIS) | selectivity index (EC50/MIC) (S. aureus IHT 99040) | selectivity index (EC50/MIC) (S. aureus NCTC 10442) | selectivity index (EC50/MIC) (E. faecium K36-18) | selectivity index (EC50/MIC) (E. faecium 50758899) | selectivity index (EC50/MIC) (E. faecium TUH50-22) | selectivity index (EC50/MIC) (E. faecium 50673722)
(19): selectivity index (EC50/MIC) (E. coli 50857972) | selectivity index (EC50/MIC) (E. coli 50579417) | selectivity index (EC50/MIC) (E. coli 50639799) | selectivity index (EC50/MIC) (E. coli 50676002) | selectivity index (EC50/MIC) (E. coli 50739822) | selectivity index (EC50/MIC) (E. faecium 50901530)
(5): selectivity index (EC50/MIC) (P. aeruginosa K44-24) | selectivity index (EC50/MIC) (P. aeruginosa 50692520) | selectivity index (EC50/MIC) (P. aeruginosa K34-7)
up to 4 fold: fold improvement in antimicrobial activity compared to the analogous amine barbiturate 7(i) ([2]; multi-resistant clinical isolates)
4 µg/mL: MIC (E. coli 50857972) | MIC (E. coli 50579417) | MIC (E. coli 50639799) | MIC (E. coli 50676002) | MIC (E. coli 50739822) | MIC (E. faecium 50901530)
8 to 16 µg/mL: MIC ([2]; Pseudomonas aeruginosa, read-out: MIC against P. aeruginosa)
16 µg/mL: MIC (P. aeruginosa K44-24) | MIC (P. aeruginosa 50692520) | MIC (P. aeruginosa K34-7)
4 to 8 µg/mL: MIC ([2]; read-out: MIC values against the Gram-negative multi-resistant clinical isolates of K. pneumoniae and A. baumanii)
